Assay results taken from patent publication US20240270719A1, “CRYSTALLINE FORMS OF 2-(4-(4-(AMINOMETHYL)-1-OXO-1,2-DIHYDROPHTHALAZIN-6-YL)-1-METHYL-1H-PYRAZOL-5-YL)-4-CHLORO-6-CYCLOPROPOXY-3-FLUOROBENZONITRILE” (Mirati Therapeutics, Inc., priority 2023, published 2024).
Where a name gives a salt, the structure may show the parent alone.

Key:
[1] = Relative stability of hydrate forms, competitive slurry experiments in IPA/water systems; type: physicochemical
Text: The relative stability between free base Form A, Form B, and Form D was investigated by conducting competitive slurry experiments in isopropyl alcohol (IPA)/water systems at room temperature. […] Further addition of Form A to the experiments verified the result. In systems with αw≥0.37, only Form A was observed after 1 day of stirring at room temperature. Further addition of Form B and Form D to the experiment confirmed the outcome.

[2] = Intrinsic dissolution rate and drug in capsule dissolution in FaSSGF and FaSSIF; type: physicochemical
Method: The IDR rate was calculated using the slope of the linear curve divided by the surface area of tablet (0.5 cm^2). […] 0.6 mL liquid was removed with a syringe at each time point and filtered. The concentration of filtrates was analyzed by HPLC.

[3] = Pharmacokinetics after oral capsule administration to dogs pre-treated with pentagastrin or famotidine; type: in vivo, male beagle dogs; details: 100 mg/dog, particle size normalized
Method: The substances were filled into Empty HPMC Capsules after correcting for potency and administered to dogs pre-treated with either pentagastrin or famotidine along with 40 mL of water. Pentagastrin enhances gastric secretions whereas famotidine neutralizes gastric sections. Therefore, pentagastrin and famotidine pre-treatments were used to simulate the impact of gastric pH on bioavailability and reduce the variability in gastric pH between dogs.
Plasma samples were collected at pre-defined intervals and analyzed for the concentration of Compound 1. The plasma concentration versus time data was analyzed by non-compartmental approaches using Win Nonlin software program to estimate PK parameters such as Cmax, Tmax, AUC0-t and AUC0-inf.

[4] = Excipient compatibility, total impurity content of binary mixtures by HPLC; type: physicochemical; details: 40° C./75% RH, 8 weeks; for Compatibility with excipients (total impurity content): binary mixtures, open condition; for Risk of chemical stability: with excipients
Text: Binary mixtures of samples were created by mixing the substance and the excipients (1:10 Compound to Excipients for fillers and 1:1 for all other excipients) using a mortar and pestle and the resultant mixture was accurately weighed and transferred into sample vials. The excipients used were as follows: colloidal silicon dioxide 200, croscarmellose sodium, crosprovidone XL-10, dibasic calcium phosphate (an), hydroxypropyl cellulose, lactose monohydrate, magnesium stearate, mannitol 100SD, MCC PH102, Opadry™ 11, povidone K-30, pregelatinized starch 1500, sodium starch glycolate, and sodium stearyl fumarate. The sample vials were set down at 40° C./75% RH condition for 8 weeks in open condition before analyzing their impurity levels using HPLC.

[5] = Compressibility, tabletability, compatibility and physical stability under compaction; type: physicochemical
Method: The compressibility (i.e., porosity vs compaction pressure), tabletability (i.e., tensile strength vs compaction pressure), and compatibility (i.e. tensile strength vs porosity) of Free Base Form A of Compound 1 was measured.

Form conversion in competitive slurry ([1]; αw=0.13, room temperature) | Dissolution in gastric media ([2]; 37° C., 50 rpm) | Exposure (plasma AUC) compared with HCl salt [3] | Compatibility with excipients (total impurity content) [4] | Risk of chemical stability ([4]; open) | Compatibility (tensile strength vs porosity) [5] | Compressibility (porosity vs compaction pressure) [5] | Tabletability (tensile strength vs compaction pressure) [5] | Loss of crystallinity (XRPD before and after compression) ([5]; high compaction pressures) | Structure (SMILES) | Conversion rate in competitive slurry ([1]; αw=0.13, compared with higher water activities) | Supersaturation in intestinal fluid ([2]; pH shifted from gastric to intestinal after 30 minutes) | Sensitivity to individual excipients (total impurity content) ([4]; colloidal silicon dioxide and lactose monohydrate, open) | Dissolution rate in intestinal media ([2]; intestinal media, 37° C., 50 rpm)
converted to Form A eventually | – | – | – | – | – | – | – | – | Cn1ncc(-c2ccc3c(=O)[nH]nc(CN)c3c2)c1-c1c(F)c(Cl)cc(OC2CC2)c1C#N [Form B, 2-(4-(4-(aminomethyl)-1-oxo-1,2-dihydrophthalazin-6-yl)-1-methyl-1H-pyrazol-5-yl)-4-chloro-6-cyclopropoxy-3-fluorobenzonitrile] | slightly slower than those at higher water activities | – | – | –
– | faster dissolution in gastric media | equivalent exposure to HCl salt | good compatibility with excipients | slightly higher | good | good | good | No apparent loss of crystallinity | Cn1ncc(-c2ccc3c(=O)[nH]nc(CN)c3c2)c1-c1c(F)c(Cl)cc(OC2CC2)c1C#N [Free Base Form A, 2-(4-(4-(aminomethyl)-1-oxo-1,2-dihydrophthalazin-6-yl)-1-methyl-1H-pyrazol-5-yl)-4-chloro-6-cyclopropoxy-3-fluorobenzonitrile] | – | able to maintain super saturation in intestinal fluid | more sensitive to colloidal silicon dioxide and lactose monohydrate than HCl Form B | –
– | common ion effect slowing dissolution | – | good compatibility with excipients | slightly higher | – | – | – | – | Cn1ncc(-c2ccc3c(=O)[nH]nc(CN)c3c2)c1-c1c(F)c(Cl)cc(OC2CC2)c1C#N [HCl Form B] | – | – | – | slightly faster dissolution rate than Free Base Form A
